Legend:
[1] = tested on: sAC^FF mouse melanocytes; assay: DAMP melanosome pH assay (HMB45 co-staining); type: cell-based; details: sAC^FF mouse melanocytes; for melanosome pH (DAMP uptake at HMB45 positive melanosomes), substance alone: 4 hours, KH7 30 μM, cAMP 500 μM, H89 10 μM, PKI 10 μM, ESI-09 10 μM
Experimental: (§1) N-{3-[(2,4-dinitrophenyl)amino]propyl}-N-(3-aminopropyl)methylamine dihydrochloride (DAMP) is a weakly basic amine that is taken up in acidic organelles of live cells and which has been used to measure melanosome pH (Bin et al., PLOS One, 10(6):e0129273 (2015); Tabata et al., Cell Tissue Res., 332(3): 447-460 (2008)). Cells were cultured on sterile glass coverslips in 24-mm wells at 50×10^3 cells/coverslip. […] After permeabilization with 0.1% Triton X-100 in Buffer A at −20° C., the cells were labeled with the supplied anti-DNP antibody (Oxford Biomedical Research) according to kit protocol. Melanosomes were identified using the monoclonal antibody (anti-HMB45, 1:40, Santa Cruz Biotechnology). Fluorescence was detected after secondary staining with Alexa Fluor 546 donkey anti-goat IgG antibody (Invitrogen) and Alexa Fluor 647 donkey anti-mouse IgG antibody (Invitrogen). All quantitative analyses were performed using the Object Count tool in Nikon AR 4.60. For each image, the lower intensity threshold limit of each fluorescence channel was defined as the intensity of the dimmest punctum returned using the 3 points circle threshold tool. The upper intensity threshold limit was set to the maximum value. Equivalent diameter (EqDiameter) was restricted to 1.85-30.00 pixels. Circularity was restricted to 0.20-1.00. Mean fluorescence intensity was measured for all DAMP^+ puncta. Melanosomes were identified as HMB45^+ puncta. DAMP measurements were only recorded when colocalized with HMB45. Frequency distributions were generated for each sample from mean DAMP fluorescence intensity of DAMP^+ melanosomes. All analyses were performed on two replicate coverslips (n≥15 cells per coverslip). Melanosomes were first identified as TRP1^+ or tyrosinase^+ puncta. sAC^+ melanosomes were identified as R52^+ or R21^+ puncta colocalizing with TRP1^+ or tyrosinase^+ puncta. The degree of colocalization between sAC and melanosomes was calculated as the number of sAC+ melanosomes divided by the total number of melanosomes and expressed as a percentage.
(§2) The effect of pharmacologic inhibition of sAC was also measured using the DAMP assay described above. Briefly, Cells were cultured on sterile glass coverslips in 24-mm wells at 50×10^3 cells/coverslip and treated or not treated for 4 hours with 30 μM KH7 or LRE1. […] After permeabilization with 0.1% Triton X-100 in Buffer A at −20° C., the cells were labeled with the supplied anti-DNP antibody (Oxford Biomedical Research) according to kit protocol. Melanosomes were identified using the monoclonal antibody (anti-HMB45, 1:40, Santa Cruz Biotechnology). Fluorescence was detected after secondary staining with Alexa Fluor 546 donkey anti-goat IgG antibody (Invitrogen) and Alexa Fluor 647 donkey anti-mouse IgG antibody (Invitrogen). All images were acquired using a Zeiss LSM 880 and analyzed using NIS-Elements AR 4.60 (Nikon).

[2] = tested on: sAC^KO mouse melanocytes; assay: DAMP melanosome pH assay (HMB45 co-staining); type: cell-based; details: 4 hours; for melanosome pH (DAMP), substance alone: KH7 30 μM, cAMP analogs 500 μM, ESI-09 10 μM, MSH 100 nM; for effect on cAMP-dependent rescue of melanosome pH (DAMP): co-incubation with cAMP [Sp-8-CPT-cAMPs], 10 μM
Experimental: as §1, §2

[3] = tested on: human melanocytes; assay: DAMP melanosome pH assay (HMB45 co-staining); type: cell-based; details: for melanosome pH (DAMP), substance alone: 4 hours, KH7 30 μM, cAMP 500 μM, H89 10 μM, ESI-09 10 μM
Experimental: as §1
The effect of sAC inhibition on melanosome pH was also assessed in human melanocytes.

[4] = tested on: human melanocytes; assay: Cellular eumelanin content; type: cell-based; details: 48 hours, KH7 30 μM, ESI-09 10 μM
Experimental: (§3) FIGS. 15A-15J provide the results of experiments analyzing the effect of sAC activity on melanin production. FIG. 15A is a graph illustrating the cellular eumelanin and pheomelanin content in sAC^FF (FF) and sAC^KO (KO) mouse melanocytes. Numbers above bars represent the ratio of pheomelanin to eumelanin. Average of triplicate determinations. FIG. 15B is a graph illustrating the cellular eumelanin content of sAC^FF and sAC^KO mouse melanocytes grown for 96 hours in the absence (−, DMSO) or presence of KH7 (+, 30 μM). Average of triplicate determinations. FIG. 15C is a graph illustrating the fold over baseline cellular eumelanin level of human melanocytes (n=8) treated with KH7 (30 μM) or vehicle (DMSO) for 48 hours. All assays performed in triplicate. Students t-test **P<0.01, ****P<0.0001. FIG. 15D is images of cell pellets of sAC^FF and sAC^KO mouse melanocytes. FIG. 15E is a graph of the melanin levels of pairs of sAC^FF and sAC^KO mouse melanocytes. FIGS. 15F and 15G are images of cell pellets of sAC^FF mouse melanocytes grown in the absence (DMSO, FIGS. 15G and 15F, left panels) or presence of KH7 (FIG. 15G, 30 μM, right panel) or LRE1 (FIG. 15F, 50 μM, right panel) for 96 hours. FIG. 15H is images of cell pellets of human melanocytes (C226, C38) treated with vehicle control (DMSO, left) or KH7 (30 μM, right) for 48 hours. FIG. 15I is images of cell pellets of human melanocytes (C226) treated with vehicle control (DMSO, left) or ESl-09 (10 μM, right) for 48 hours. FIG. 15J is a graph illustrating the fold over baseline cellular (eumelanin) level of human melanocytes treated with ESl-09 (10 μM) or vehicle (DMSO) for 48 hours (n=3, distinct human cell lines). For FIGS. 15E and 15J Students t-test, *p<0.05, **p<0.01, ****p<0.0001.

[5] = tested on: PKA targeted proteins; assay: Western blot of PKA substrate phosphorylation; type: cell-based; details: mouse and human melanocytes, 4 hours
[6] = tested on: sAC^FF mouse melanocytes; assay: LysoSensor Yellow/Blue DND-160 organelle pH assay; type: cell-based; details: 30 μM, 4 hours
Experimental: (§4) To determine the pH of the sAC^KO and sAC^FF melanocytes the pH-sensitive vital dye LysoSensor Yellow/Blue DND-160 (Bellono et al. Sci Rep., 6:26570 (2016)) was used. Briefly, cells were incubated with 1 μM LysoSensor DND-160 (Invitrogen) for 5 minutes at 37° C. Lysosensor was excited at 405 nm and its emission detected at 417-483 nm (W1) and 490-530 nm (W2). The ratio of emissions (W1/W2) in Lysosensor-stained puncta was assigned to a pH value based on a calibration curve generated for each experiment using solutions containing 125 mM KCl, 25 mM NaCl, 24 μM monensin, and varying concentrations of MES to adjust the pH to 4, 4.5, 5.0, 5.5, 6.0, 6.5, 7.0, 7.5. The fluorescence ratio was linear for pH 5.0-7.0.
as §4, with “The effect” for “To determine the pH”, “pharmacologic inhibition of sAC was examined using” for “the sAC^KO and sAC^FF melanocytes”, “vial” for “vital”, “assay, described above.” for “(Bellono et al. Sci Rep., 6:26570 (2016)) was used.”, “Briefly, cultured sAC^FF melanocytes were treated for 4 hours with 30 μM KH7, 30 μM LRE1, or control (untreated). The” for “Briefly,”

[7] = tested on: sAC^KO mouse melanocytes; assay: LysoSensor Yellow/Blue DND-160 organelle pH assay; type: cell-based; details: 30 μM, 4 hours
Experimental: as §4
as §4, with “The effect” for “To determine the pH”, “pharmacologic inhibition of sAC was examined using” for “the sAC^KO and sAC^FF melanocytes”, “vial” for “vital”, “assay, described above.” for “(Bellono et al. Sci Rep., 6:26570 (2016)) was used.”, “Briefly, cultured sAC^FF melanocytes were treated for 4 hours with 30 μM KH7, 30 μM LRE1, or control (untreated). The” for “Briefly,”

[8] = tested on: sAC^FF mouse melanocytes; assay: Cellular eumelanin content; type: cell-based; details: KH7 30 μM or LRE1 50 μM, 96 hours
Experimental: as §3

[9] = tested on: sAC^KO mouse melanocytes; assay: Cellular eumelanin content; type: cell-based; details: 96 hours
Experimental: as §3

[10] = tested on: C3H/HeJ mice; assay: Topical treatment of ear, epidermal pigmentation (Fontana Masson); type: in vivo, mouse; details: topical on right ear, twice a day for two weeks
Experimental: Melanocytes also exist in the epidermis at specific areas of mouse skin (e.g., pinnae) (Nordlund et al., Dermatol Clin., 4(3): 407-418 (1986)); thus, these areas were studied to examine the role of sAC in epidermal pigmentation. For analysis of epidermal pigmentation, using C3H/HeJ mice as above, 20 μl of KH7 ([…]), LRE1 (28 mg/ml) or DMSO (vehicle control) was topically applied on the right ear and DMSO was topically applied on the left ear twice a day for two weeks. Ear skin was monitored daily for irritation and changes in pigmentation. After two weeks, mice were euthanized and the treated skin was submitted to a blinded animal pathologist for histological evaluation of the epidermis and special stains (Fontana Masson). This experiment was performed twice with 3 mice per cohort (total n=6)

[11] = tested on: C3H/HeJ mice; assay: Topical treatment of epilated back skin, hair pigmentation; type: in vivo, mouse
Experimental: Therefore, experiments were performed to determine whether inhibition of sAC in animals could alter hair pigmentation. Animal experiments were performed in accordance with approved Institutional Animal Care and Use Committee protocol at Weill Cornell Medicine. Age and gender matched C3H/HeJ mice (female, 7 weeks old) were purchased from The Jackson Laboratory. For the analysis of hair pigmentation, the upper and lower dorsum of each mouse were epilated using hair removal wax. 10 μl of KH7 (42 mg/ml in DMSO), LRE1 (28 mg/ml in DMSO) or DMSO (vehicle control) was topically applied onto the upper back and DMSO was applied to the lower back three times a day over two weeks. These mice were monitored for changes in coat color as the epilated hair grew back. Hair was removed from each treated area after 3 weeks to measure the length of the total hair, apical black tip and subapical agouti (pheomelanin) band under a stereo microscope. Mice were euthanized and the treated skin was submitted to a blinded animal pathologist for histological evaluation of the epidermis and hair follicles. This experiment was performed twice with 3-4 mice per cohort (total n=6-7)

[12] = topical on back, hair removed after 3 weeks
[13] = co-incubation with 30 μM KH7, 4 hours, cAMP analogs 500 μM, MSH 100 nM

CC(C)(C)c1cc(C(=O)C(C#N)=NNc2cccc(Cl)c2)no1 [ESI-09, 3-(5-tert-butyl-isoxazol-3-yl)-2-((3-chlorophenyl)-hydrazono)-3-oxo-propionitrile]
melanosome pH (DAMP uptake at HMB45 positive melanosomes), substance alone [1]: elevated melanosome pH
melanosome pH (DAMP), substance alone [2]: had no effect on melanosome pH
melanosome pH (DAMP), substance alone [3]: elevated melanosome pH
eumelanin level [4]: induced an increase in eumelanin level

C[C@@H]1C[C@@H]([C@H](O)CC2CC(=O)NC(=O)C2)C(=O)[C@@H](C)C1 [cycloheximide]
effect on cAMP-dependent rescue of melanosome pH (DAMP) [2]: did not block the ability of cAMP to rescue pH following sAC inhibition

O=S(=O)(NCCNC/C=C/c1ccc(Br)cc1)c1cccc2cnccc12 [H89]
melanosome pH (DAMP uptake at HMB45 positive melanosomes), substance alone [1]: had no effect on melanosome pH
effect on cAMP-dependent rescue of melanosome pH (DAMP) [2]: did not block the cAMP-dependent rescue of melanosome pH
melanosome pH (DAMP), substance alone [3]: had no effect on melanosome pH
phosphorylation of PKA targeted proteins [5]: dramatic reduction in the phosphorylation of PKA targeted proteins

LRE1
pH of LysoSensor-visualized organelles [6]: induced an alkaline pH shift
pH of LysoSensor-visualized organelles [7]: had no effect
eumelanin levels [8]: increased eumelanin levels
eumelanin levels [9]: had no effect
colour of ear epidermis relative to vehicle control ([10]; 20 μl KH7 or LRE1 (28 mg/ml)): induced visual darkening of mouse ear epidermis
epidermal melanin accumulation (Fontana Masson) [10]: increase in epidermal melanin accumulation
eumelanin production in hair (microscopic examination) [11, 12]: increase in eumelanin production
length of the agouti (pheomelanin) band [11, 12]: reduction in length of the agouti (pheomelanin) band
histologic examination of treated skin ([11]; topical on back, two weeks): did not reveal any pathological change to the hair follicles or epidermis
colour of regrown hair versus vehicle control ([11]; topical on epilated back, 10 μl KH7 42 mg/ml or LRE1 28 mg/ml in DMSO, three times a day over two weeks): visual darkening of regrown hair

CO[C@H]1C2OP(=O)(O)OC[C@H]2O[C@H]1n1c(Sc2ccc(O)cc2)nc2c(N)ncnc21 (stereo partly shown) [8-pHPT-2′-O-Me-cAMP, 8-(4-Hydroxyphenylthio)-2′-O-methyladenosine-3′, 5′-cyclic monophosphate]
effect on KH7-induced alkaline shift in melanosome pH (DAMP) [1, 13]: mitigate the KH7-induced alkalization of melanosome pH
melanosome pH (DAMP), substance alone [2]: sufficient to induce melanosome acidification
effect on KH7-induced alkaline shift in melanosome pH (DAMP) [3, 13]: mitigate the KH7-induced alkalization of melanosome pH

Reference: patent publication US11680264B2, “Methods of modulating melanosome pH and melanin level in cells” (Cornell University, priority 2016, dated 2023)
